Assay results as given in patent US20260049106A1, “PEPTIDE COMPOSITIONS AND METHODS OF USE” (ONL Therapeutics, Inc., priority 2022, published 2026).
Ends that are not written are not given here.

Key:
Jurkat cells = assay: Cell viability preservation in vitro: cell confluence of Jurkat cells after 24-hour incubation with or without recombinant His-tagged FasL and anti-His antibody; assay type: cell-based; details: Incucyte / Vi-CELL
Description: Compounds (oligopeptides) of the present disclosure were assayed for their ability to effect cell confluence following a 24-hour incubation. Jurkat cells were incubated for 24 hours with varying concentrations of compound (i.e., 200, 66.7, 22.2, 7.4, 2.5, 0.8, 0.3, and 0.1) and with or without recombinant His-tagged FasL along with an anti-His antibody. After the 24-hour incubation, cell confluence was quantified using an S3 Incucyte Imaging System (Sartorius) and a Vi-CELL XR Cell Viability Analyzer (Beckman Coulter) and compared to controls (cells incubated in the absence of compound and cells incubated with a known Fas inhibitor).

photoreceptor cells = details: cell culture experiments; separation of the retinal and retinal pigment epithelium; cited from earlier work
[1] = apparently clear solution in 20 mM citrate buffer pH 2.8, in vitro and in vivo assays; cited from earlier work

Row | Substance | Activity (lowest concentration that prevented loss of cell confluency) (Jurkat cells) | photoreceptor protection (photoreceptor cells) | loss in activity [1]
1 | HHIYLGAVNYIY-NH2 [Compound A, reference compound] | A (cell protection at x < 1.0 μM) | – | –
2 | H^60HIYLGAVNYIY^71 (HHIYLGAVNYIY) [Met-12] | – | photoreceptor protective | at least a fivefold loss in activity
3 | NH2-HHIAAGAVNYIY-C(O)NH2 (H-HHIAAGAVNYIY-NH2) [Compound 6] | B (cell protection at 1.0 < x < 10.0 μM) | – | –
4 | NH2-HHIYLGGGGGNYIY-C(O)NH2 (H-HHIYLGGGGGNYIY-NH2) [Compound 7] | B (cell protection at 1.0 < x < 10.0 μM) | – | –
5 | NH2-HHIYLGSSSSNYIY-C(O)NH2 (H-HHIYLGSSSSNYIY-NH2) [Compound 8] | B (cell protection at 1.0 < x < 10.0 μM) | – | –
6 | NH2-HKIYLGAVNYIY-C(O)NH2 (H-HKIYLGAVNYIY-NH2) [Compound 11] | B (cell protection at 1.0 < x < 10.0 μM) | – | –
7 | NH2-KHIYLGAVNYIY-C(O)NH2 (H-KHIYLGAVNYIY-NH2) [Compound 10] | A (cell protection at x < 1.0 μM) | – | –
8 | NH2-KKIYLGAVNYIY-C(O)NH2 (H-KKIYLGAVNYIY-NH2) [Compound 9] | B (cell protection at 1.0 < x < 10.0 μM) | – | –
